For orientation: IC50 means the midpoint of a concentration-inhibition curve.

Where a SMILES comes first, the peptide text is derived from it. Bridges are numbered along the chain shown (N, C = ends). [ ]: non-standard residue; d: D form. The star is where a group is joined. Phe(4-COOH) = N[C@@H](Cc1ccc(C(=O)O)cc1)C(=O)O; Bip = N[C@@H](Cc1ccc(-c2ccccc2)cc1)C(=O)O; 3Pal = N[C@@H](Cc1cccnc1)C(=O)O; 4Pal = N[C@@H](Cc1ccncc1)C(=O)O; Carboxymethyl = O=C(O)C*; Orn = NCCC[C@H](N)C(=O)O; Dab = NCC[C@H](N)C(=O)O; Dap = NC[C@H](N)C(=O)O

In this test the target is T1, human PD-1 / PD-L1-Ig binding on Jurkat cell line over-expressing human PD-1 (Jurkat-PD-1) (Homo sapiens, UniProt Q15116).
T1 construct: expressed in transfected cells; host or cells: Jurkat
T1 sequence (Q15116 25-288): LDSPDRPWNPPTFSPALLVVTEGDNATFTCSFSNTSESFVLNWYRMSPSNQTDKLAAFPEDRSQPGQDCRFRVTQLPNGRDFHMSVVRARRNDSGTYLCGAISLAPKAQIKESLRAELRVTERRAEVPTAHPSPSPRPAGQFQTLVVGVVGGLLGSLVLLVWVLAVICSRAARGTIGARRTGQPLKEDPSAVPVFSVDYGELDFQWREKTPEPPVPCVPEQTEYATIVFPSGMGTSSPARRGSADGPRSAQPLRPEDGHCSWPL
Description: Jurkat-PD-1 Cell Binding High-Content Screening Assay (CBA). The test is classed as cell-based. Conditions: Jurkat-PD-1 cells, PE-labeled PD-L1-Ig 20 nM final; read-out: Jurkat HPD1_PDL1 IC50. Summed up: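 Compounds were preincubated with Jurkat-hPD-1 cells in DMEM plus 10% fetal calf serum for 2 h at 37° C. Phycoerythrin-labeled PD-L1-Ig (20 nM final) was then added for 1 hour. Cells were fixed in 4% paraformaldehyde with Hoechst 33342, and bound fluorescence was quantified by high-content imaging.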
For `CC(C)C[C@@H]1NC(=O)[C@H](CCN)NC(=O)[C@@H](CC(C)C)NC(=O)[C@H](CCCN)NC(=O)[C@H](C(C)C)NC(=O)[C@H](Cc2ccc(-c3ccccc3)cc2)NC(=O)[C@H](C(C)C)NC(=O)[C@H](Cc2c[nH]c3ccccc23)NC(=O)[C@H](CC(=O)O)NC(=O)[C@H](Cc2ccc(OCC(=O)O)cc2)NC(=O)[C@H](CN)NC(=O)CSC[C@@H](C(=O)N[C@@H](C)C(N)=O)NC(=O)[C@H]([C@@H](C)O)NC(=O)[C@H](C(C)C)NC1=O` [Compound 1048] ({CH2CO}-[Dap]Y(Carboxymethyl)DWV[Bip]V[Orn][dL][Dab]LVTCA-NH2; thioether N-14), the IC50 worked out at 13.7 nM. In the case of `CC(C)C[C@@H]1NC(=O)[C@H](CCN)NC(=O)[C@@H](CC(C)C)NC(=O)[C@H](CCCN)NC(=O)[C@H](C(C)C)NC(=O)[C@H](Cc2ccc(-c3ccccc3)cc2)NC(=O)[C@H](C(C)C)NC(=O)[C@H](Cc2c[nH]c3ccccc23)NC(=O)[C@H](CC(=O)O)NC(=O)[C@H](Cc2ccc(C(=O)O)cc2)NC(=O)[C@H](Cc2cccnc2)NC(=O)CSC[C@@H](C(=O)N[C@@H](C)C(N)=O)NC(=O)[C@H]([C@@H](C)O)NC(=O)[C@H](C(C)C)NC1=O` [Compound 1049] ({CH2CO}-[3Pal][Phe(4-COOH)]DWV[Bip]V[Orn][dL][Dab]LVTCA-NH2; thioether N-14) it was 7.2 nM; in that of `CC(C)C[C@@H]1NC(=O)[C@H](CCN)NC(=O)[C@@H](CC(C)C)NC(=O)[C@H](CCCN)NC(=O)[C@H](C(C)C)NC(=O)[C@H](Cc2ccc(-c3ccccc3)cc2)NC(=O)[C@H](C(C)C)NC(=O)[C@H](Cc2c[nH]c3ccccc23)NC(=O)[C@H](CC(=O)O)NC(=O)[C@H](Cc2ccc(O)cc2)NC(=O)[C@H](Cc2cccnc2)NC(=O)CSC[C@@H](C(=O)N[C@@H](C)C(N)=O)NC(=O)[C@H]([C@@H](C)O)NC(=O)[C@H](C(C)C)NC1=O` [Compound 1050] ({CH2CO}-[3Pal]YDWV[Bip]V[Orn][dL][Dab]LVTCA-NH2; thioether N-14), 9.9 nM.

On to `CC(C)C[C@@H]1NC(=O)[C@H](CCN)NC(=O)[C@@H](CC(C)C)NC(=O)[C@H](CCCN)NC(=O)[C@H](C(C)C)NC(=O)[C@H](Cc2ccc(-c3ccccc3)cc2)NC(=O)[C@H](C(C)C)NC(=O)[C@H](Cc2c[nH]c3ccccc23)NC(=O)[C@H](CC(=O)O)NC(=O)[C@H](Cc2ccc(OCC(=O)O)cc2)NC(=O)[C@H](Cc2ccncc2)NC(=O)CSC[C@@H](C(=O)N[C@@H](C)C(N)=O)NC(=O)[C@H]([C@@H](C)O)NC(=O)[C@H](C(C)C)NC1=O` [Compound 1051] ({CH2CO}-[4Pal]Y(Carboxymethyl)DWV[Bip]V[Orn][dL][Dab]LVTCA-NH2; thioether N-14), for which the IC50 is 5.2 nM. For `CC[C@H](C)[C@@H]1NC(=O)[C@H](Cc2ccc(-c3ccccc3)cc2)NC(=O)[C@H](C(C)C)NC(=O)[C@H](Cc2c[nH]c3ccccc23)NC(=O)[C@H](CC(=O)O)NC(=O)[C@H](Cc2ccc(C(=O)O)cc2)NC(=O)[C@H](CN)NC(=O)CSC[C@@H](C(=O)N[C@@H](C)C(N)=O)NC(=O)[C@H]([C@@H](C)O)NC(=O)[C@H](C(C)C)NC(=O)[C@H](CC(C)C)NC(=O)[C@H](CCN)NC(=O)[C@@H](CC(C)C)NC(=O)[C@H](CCCN)NC1=O` [Compound 1052] ({CH2CO}-[Dap][Phe(4-COOH)]DWV[Bip]I[Orn][dL][Dab]LVTCA-NH2; thioether N-14), the IC50 was found to be 11.8 nM. For `CC[C@H](C)[C@@H]1NC(=O)[C@H](Cc2ccc(-c3ccccc3)cc2)NC(=O)[C@H](C(C)C)NC(=O)[C@H](Cc2c[nH]c3ccccc23)NC(=O)[C@H](CC(=O)O)NC(=O)[C@H](Cc2ccc(O)cc2)NC(=O)[C@H](Cc2ccncc2)NC(=O)CSC[C@@H](C(=O)N[C@@H](C)C(N)=O)NC(=O)[C@H]([C@@H](C)O)NC(=O)[C@H](C(C)C)NC(=O)[C@H](CC(C)C)NC(=O)[C@H](CCN)NC(=O)[C@@H](CC(C)C)NC(=O)[C@H](CCCN)NC1=O` [Compound 1053] ({CH2CO}-[4Pal]YDWV[Bip]I[Orn][dL][Dab]LVTCA-NH2; thioether N-14), the IC50 stood at 13.7 nM.

`CC[C@H](C)[C@@H]1NC(=O)[C@H](Cc2ccc(-c3ccccc3)cc2)NC(=O)[C@H](C(C)C)NC(=O)[C@H](Cc2c[nH]c3ccccc23)NC(=O)[C@H](CC(=O)O)NC(=O)[C@H](Cc2ccc(OCC(=O)O)cc2)NC(=O)[C@H](CN)NC(=O)CSC[C@@H](C(=O)N[C@@H](C)C(N)=O)NC(=O)[C@H]([C@@H](C)O)NC(=O)[C@H](C(C)C)NC(=O)[C@H](CC(C)C)NC(=O)[C@H](CCN)NC(=O)[C@@H](CC(C)C)NC(=O)[C@H](CCCN)NC1=O` [Compound 1054] ({CH2CO}-[Dap]Y(Carboxymethyl)DWV[Bip]I[Orn][dL][Dab]LVTCA-NH2; thioether N-14): the 50% inhibitory concentration (IC50) was 9 nM.

On to `CC[C@H](C)[C@@H]1NC(=O)[C@H](Cc2ccc(-c3ccccc3)cc2)NC(=O)[C@H](C(C)C)NC(=O)[C@H](Cc2c[nH]c3ccccc23)NC(=O)[C@H](CC(=O)O)NC(=O)[C@H](Cc2ccc(C(=O)O)cc2)NC(=O)[C@H](Cc2ccncc2)NC(=O)CSC[C@@H](C(=O)N[C@@H](C)C(N)=O)NC(=O)[C@H]([C@@H](C)O)NC(=O)[C@H](C(C)C)NC(=O)[C@H](CC(C)C)NC(=O)[C@H](CCN)NC(=O)[C@@H](CC(C)C)NC(=O)[C@H](CCCN)NC1=O` [Compound 1055] ({CH2CO}-[4Pal][Phe(4-COOH)]DWV[Bip]I[Orn][dL][Dab]LVTCA-NH2; thioether N-14), for which the half-inhibitory concentration (IC50) turned out to be 5.8 nM. In the case of `CC[C@H](C)[C@@H]1NC(=O)[C@H](Cc2ccc(-c3ccccc3)cc2)NC(=O)[C@H](C(C)C)NC(=O)[C@H](Cc2c[nH]c3ccccc23)NC(=O)[C@H](CC(=O)O)NC(=O)[C@H](Cc2ccc(O)cc2)NC(=O)[C@H](CN)NC(=O)CSC[C@@H](C(=O)N[C@@H](C)C(N)=O)NC(=O)[C@H]([C@@H](C)O)NC(=O)[C@H](C(C)C)NC(=O)[C@H](CC(C)C)NC(=O)[C@H](CCN)NC(=O)[C@@H](CC(C)C)NC(=O)[C@H](CCCN)NC1=O` [Compound 1056] ({CH2CO}-[Dap]YDWV[Bip]I[Orn][dL][Dab]LVTCA-NH2; thioether N-14) it was 8.6 nM; in that of `CC[C@H](C)[C@@H]1NC(=O)[C@H](Cc2ccc(-c3ccccc3)cc2)NC(=O)[C@H](C(C)C)NC(=O)[C@H](Cc2c[nH]c3ccccc23)NC(=O)[C@H](CC(=O)O)NC(=O)[C@H](Cc2ccc(OCC(=O)O)cc2)NC(=O)[C@H](Cc2ccncc2)NC(=O)CSC[C@@H](C(=O)N[C@@H](C)C(N)=O)NC(=O)[C@H]([C@@H](C)O)NC(=O)[C@H](C(C)C)NC(=O)[C@H](CC(C)C)NC(=O)[C@H](CCN)NC(=O)[C@@H](CC(C)C)NC(=O)[C@H](CCCN)NC1=O` [Compound 1057] ({CH2CO}-[4Pal]Y(Carboxymethyl)DWV[Bip]I[Orn][dL][Dab]LVTCA-NH2; thioether N-14), 129 nM; in that of `CC(C)C[C@@H]1NC(=O)[C@H](Cc2c[nH]c3ccccc23)NC(=O)[C@H](CC(=O)O)NC(=O)[C@H](Cc2ccc(O)cc2)NC(=O)[C@H](Cc2ccccc2)NC(=O)CSC[C@@H](C(=O)N[C@@H](C)C(N)=O)NC(=O)[C@H]([C@@H](C)O)NC(=O)[C@H](C(C)C)NC(=O)[C@H](CC(C)C)NC(=O)[C@H](CC(N)=O)NC(=O)[C@@H](CC(C)C)NC(=O)[C@H](CCN)NC(=O)[C@H](C(C)C)NC(=O)[C@H](Cc2ccc(-c3ccccc3)cc2)NC1=O` [Compound 1058] ({CH2CO}-FYDWL[Bip]V[Dab][dL]NLVTCA-NH2; thioether N-14), 18.1 nM.
